This is an account of results in ChEMBL document CHEMBL5725202, “Substituted bicyclic compounds” (2016).

In this assay the target is Sphingosine 1-phosphate receptor 1 (Homo sapiens, UniProt P21453). Nature of the assay: Binding Assay: Membranes were prepared from CHO cells expressing human S1P1. Cells pellets (1x10^9 cells/pellet) were suspended in buffer containing 20 mM HEPES (4-(2-hydroxyethyl)-1-piperazineethanesulfonic acid), pH 7.5, 50 mM NaCl, 2 mM EDTA (Ethylenediaminetetraacetic acid) and Protease Inhibitor cocktail (Roche), and disrupted on ice using the Polytron homogenizer. The homogenate was centrifuged at 20,000 rpm (48,000 g) and the supernatant was discarded. The membrane pellets were resuspended in buffer containing 50 mM HEPES, pH 7.5, 100 mM NaCl, 1 mM MgCl2, 2 mM EDTA and stored in aliquots at -80° C. after protein concentration determination.Membranes (2 ug/well) and 0.03 nM final concentration of 33P-S1P ligand (1 mCi/ml, Perkin elmer or American Radiolabeled Chemicals) diluted in assay buffer (50 mM HEPES, pH7.4, 5 mM MgCl2, 1 mM CaCl2, 0.5% fatty acid free BSA (bovine serum albumin), 1 mM NaF) were added to the compound plates (384 Falcon v-bottom plate (0.5 ul/well in a 11 point, 3-fold dilution). Binding was performed for 45 minutes at room temperature, terminated by collecting the membranes onto 384-well Millipore FB filter plates, and radioactivity was measured by TOPCOUNT. The competition data of the test compounds over a range of concentrations was plotted as percentage inhibition of radioligand specific binding.

Structures are written as SMILES.

Chain of Sphingosine 1-phosphate receptor 1 (P21453 whole entry): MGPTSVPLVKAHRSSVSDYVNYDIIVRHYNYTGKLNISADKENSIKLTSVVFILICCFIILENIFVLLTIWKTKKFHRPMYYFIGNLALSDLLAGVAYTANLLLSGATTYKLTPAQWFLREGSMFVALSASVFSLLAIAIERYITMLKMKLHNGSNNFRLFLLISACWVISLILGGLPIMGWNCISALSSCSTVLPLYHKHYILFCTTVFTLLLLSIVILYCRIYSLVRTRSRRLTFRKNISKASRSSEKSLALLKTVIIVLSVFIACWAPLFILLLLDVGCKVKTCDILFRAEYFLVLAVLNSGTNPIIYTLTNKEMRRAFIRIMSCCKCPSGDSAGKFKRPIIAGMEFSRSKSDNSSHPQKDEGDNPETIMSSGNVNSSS

The IC50 is the concentration that gives 50% inhibition. Regarding `CCCCCC[C@H]1Cc2ccc([C@@H]3CC[C@](N)(COP(=O)(O)O)C3)cc2CO1`, the half-maximal inhibitory concentration (IC50) is < 10 nM.
